Laboratory results reported in US20230014907A1, “INHIBITORS OF APOL1 AND METHODS OF USING SAME” (Vertex Pharmaceuticals Incorporated, priority 2020, published 2023).

Target: T1, G1 APOL1 (Homo sapiens, UniProt O14791, I384M/S342G)
T1 construct: expressed in transfected cells
T1 sequence (O14791 28-398 S342G/I384M): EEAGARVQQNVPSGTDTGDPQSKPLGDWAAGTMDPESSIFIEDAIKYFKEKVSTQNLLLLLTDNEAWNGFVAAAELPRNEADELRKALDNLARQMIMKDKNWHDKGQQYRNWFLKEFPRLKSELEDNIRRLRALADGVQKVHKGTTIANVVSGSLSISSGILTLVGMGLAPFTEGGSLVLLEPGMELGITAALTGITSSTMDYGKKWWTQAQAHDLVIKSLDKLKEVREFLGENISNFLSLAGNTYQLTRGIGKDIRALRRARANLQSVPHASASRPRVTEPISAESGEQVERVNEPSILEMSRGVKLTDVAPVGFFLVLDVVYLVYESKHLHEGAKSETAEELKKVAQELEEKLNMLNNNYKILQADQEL
Assay: Acute APOL1 Thallium Assay with Inducible Stable Clones of HEK 293 Cells
Type: cell-based
Conditions: HEK 293 inducible stable clones, G1 APOL1; read-out: Thallium Assay (IC50)
From the text: Acute APOL1 Thallium Assay with Inducible Stable Clones of HEK 293 Cells
Apolipoprotein L1 (APOL1) proteins form potassium-permeable cation pores in the plasma membrane. APOL1 risk variants (G1 and G2) induce greater potassium flux than G0 in HEK293 cells. This assay exploits the permeability of thallium (Tl+) through ligand-gated potassium channels. The dye produces a bright fluorescent signal upon binding to Tl+ conducted through potassium channels. The intensity of the Tl+ signal is proportional to the number of potassium channels in the open state. Therefore, it provides a functional indication of the potassium channel activities. During the initial dye-loading step, the Tl+ indicator dye as an acetoxymethyl (AM) ester enters the cells through passive diffusion. Cytoplasm esterases cleave the AM ester and relieve its active thallium-sensitive form. The cells are then stimulated with Tl+. The increase of fluorescence in the assay represents the influx of Tl+ into the cell specifically through the potassium channel (i.e. through APOL1 pores), providing a functional measurement of potassium channel/pore activity. The Thallium assay is conducted with cells expressing G1 APOL1.
APOL1 Cell Line (HEK T-Rex Stable Inducible Cell Line) • HEK T-Rex System • Tetracycline (Tet) inducible mammalian expression system. • Stably express the Tet repressor to regulate transcription. • Expression under the full-length CMV promoter. • APOL1 stable inducible cell line Clone used: G1 DC3.25
Tissue Culture Media • Cell Culture Medium • DMEM+10% FBS+P/S+5 μg/mL blasticidin+1 μg/mL puromycin. • 500 mL DMEM+55 mL FBS+5 mL P/S+280 μL blasticidin S HCl (10 mg/mL)+56 μL puromycin (10 mg/mL). • Cell Assay Medium • DMEM with 2% FBS+penicillin/streptomycin.
Instruments and Equipment • Nuaire cell culture hood, Cat. No. 540-600 • 37° C./5% CO2 incubator link to robotic arm, Liconic: STX110 • Molecular Devices FLIPR^Tetra High throughput cellular screening system, Cat. No. FT0324, Molecular Devices • ThermoFisher MultiDrop 384, Cat. No. 5840300 • Biotek Microfill, Cat. No. ASF1000A-4145 • BioRad TC10 cell counter, Cat. No. 145-0010
Cells Scaled Up from Frozen Vials • APOL1 G1 3.25 (HEK293 T-Rex) frozen vials: 5 million cells per vial • Step 1, Day 1: Defrost frozen vial into T-225. • Step 2, Day 5: (when 85% confluent): Split one T-225 at 3×10^6 cells per flask. • Step 3, Day 8: Splits cells to set up for the assay plates as described below.
T-Rex APOL1 HEK cells are split twice per week to keep the confluence state below 85% of the culture flask surface area. Cells can be kept until passage 25. • Cell Culture Medium • DMEM high glucose+10% FBS, +P/S, +5 μg/mL blasticidin, +1 μg/mL puromycin. • 500 mL DMEM, +55 mL FBS, +5 mL P/S, +280 μL blasticidin 10 mg/mL, +56 μL Puromycin 10 mg/mL. • Assay Media • Opti-MEM reduced serum medium from Invitrogen.
Preparation of Cell Assay Plates • Culture medium is removed from the x cm^2 T-flask by aspiration. • The cell monolayer is rinsed with PBS 1× at room temperature. PBS is removed by aspiration. • Cells are trypsinized using Trypsin. • The flasks are incubated at room temperature for 2-3 minutes. • Complete DMEM medium is then added. Cell suspension is then transferred to a 50 mL Falcon polypropylene tube. • Cells are then counted using a BioRad TC10 cell counter and the required amount of cells are centrifuged at 1200 RPM for 5 minutes. Required amount is 1.3×10^6 cells/mL APOL1 T-Rex HEK cells. • The pellet is suspended in the assay medium. • Using the MultiDrop, add 20 μL to each well (corresponds to 26000 cells total per well) of a 384-well black, transparent, flat bottom Poly-D coated plate. • Tetracycline as prepared in the following section is added to the cells before plating to induce APOL1 expression. • Plates are left at room temperature for 20 to 30 minutes before incubation at 37° C. and 5% CO2. […]

With `CC(CC(=O)NC(CO)C(F)(F)F)c1c(-c2ccc(F)cc2)[nH]c2c(F)cc(F)cc12` (single isomer, unassigned) [Compound 514] the IC50 was > 1000 nM.

`O=C(NCCc1c(-c2ccc(F)cc2)[nH]c2c(F)cc(F)cc12)C1CNC1=O` (stereo not drawn) [Compound 350] was tested, and the IC50 was > 1000 nM.

In the case of `O=C(CNC(=O)NCCc1c(-c2ccc(F)cc2)[nH]c2c(F)cc(F)cc12)NO` [Compound 260], the IC50 is reported as > 1000 nM.

Work on `O=C(NCCc1c(-c2ccc(F)cc2)[nH]c2c(F)cc(F)cc12)c1c[nH]cn1` [Compound 353] yielded an IC50 of 250 to 1000 nM.

With `NC(=O)[C@@H](CO)NC(=O)OCCc1c(-c2ccc(F)cc2)[nH]c2c(F)cc(F)cc12` [Compound 447] the IC50 was < 250 nM.

In the case of `O=C1NCCCC1C(=O)NCCc1c(-c2ccc(F)cc2)[nH]c2c(F)cc(F)cc12` (stereo not drawn) [Compound 330], the IC50 is reported as > 1000 nM.

With `Cc1nccn1CC(=O)NCCc1c(-c2ccc(F)cc2)[nH]c2c(F)cc(F)cc12` [Compound 380] the IC50 was > 1000 nM.

`O=C(NCCc1c(-c2ccc(F)cc2)[nH]c2c(F)cc(F)cc12)NCC1(O)CCCC1` [Compound 266] was tested, and the IC50 was > 1000 nM.

`Cc1cc(F)c2[nH]c(-c3ccc(F)cc3)c(CCC(=O)NC(CO)CO)c2c1` [Compound 219] was tested, and the IC50 was > 1000 nM.

For `CC(C)(O)C#Cc1c(-c2ccc(F)cc2)[nH]c2c(F)cc(F)cc12` [Compound 523, 4-[5,7-difluoro-2-(4-fluorophenyl)-1H-indol-3-yl]-2-methyl-but-3-yn-2-ol], the IC50 was > 1000 nM.

In the case of `O=C(NC1CC(F)(F)C1)OCCc1c(-c2ccc(F)cc2)[nH]c2c(F)cc(F)cc12` [Compound 465], the IC50 is reported as 250 to 1000 nM.

For `CN(C)C(=O)CCC(=O)NCCc1c(-c2ccc(F)cc2)[nH]c2c(F)cc(F)cc12` [Compound 374], the IC50 was > 1000 nM.

With `Cc1ccc(C(=O)NCCc2c(-c3ccc(F)cc3)[nH]c3c(F)cc(F)cc23)o1` [Compound 393] the IC50 was > 1000 nM.

In the case of `Cn1ccnc1CCC(=O)NCCc1c(-c2ccc(F)cc2)[nH]c2c(F)cc(F)cc12` [Compound 371], the IC50 is reported as > 1000 nM.

`O=C(NCCO)NCCc1c(-c2ccc(F)cc2)[nH]c2c(F)cc(F)cc12` [Compound 286] was tested, and the IC50 was > 1000 nM.

`Cc1cc(CNC(=O)OCCc2c(-c3ccc(F)cc3)[nH]c3c(F)cc(F)cc23)on1` [Compound 492] was tested, and the IC50 was > 1000 nM.

For `NC(=O)C1(C(=O)NCCc2c(-c3ccc(F)cc3)[nH]c3c(F)cc(F)cc23)CC1` [Compound 339], the IC50 was 250 to 1000 nM.

For `O=C(NCCc1c(-c2ccc(F)cc2)[nH]c2c(F)cc(F)cc12)c1cc[nH]n1` [Compound 351], the IC50 was > 1000 nM.

With `CS(=O)(=O)CCNC(=O)NCCc1c(-c2ccc(F)cc2)[nH]c2c(F)cc(F)cc12` [Compound 287] the IC50 was > 1000 nM.

In the case of `COC[C@H](C)NC(=O)OCCc1c(-c2ccc(F)cc2)[nH]c2c(F)cc(F)cc12` [Compound 444], the IC50 is reported as < 250 nM.

In the case of `CC(CC(N)=O)NC(=O)NCCc1c(-c2ccc(F)cc2)[nH]c2c(F)cc(F)cc12` (racemic) [Compound 271], the IC50 is reported as 250 to 1000 nM.

`CNC(=O)CC(=O)NCCc1c(-c2ccc(F)cc2)[nH]c2c(F)cc(F)cc12` [Compound 345] was tested, and the IC50 was > 1000 nM.

For `O=C(CCc1c(-c2ccc(F)cc2)[nH]c2c(F)cc(Cl)cc12)NC[C@@H](O)CO` [Compound 210], the IC50 was > 1000 nM.

In the case of `O=C(NCCc1c(-c2ccc(F)cc2)[nH]c2c(F)cc(F)cc12)c1ccc(O)nc1` [Compound 334], the IC50 is reported as > 1000 nM.
